Measurements from ChEMBL document CHEMBL4130624, “Optimization of 1,4-Oxazine β-Secretase 1 (BACE1) Inhibitors Toward a Clinical Candidate” (J Med Chem, 2018).

Tests used:
[1] = Ratio of total drug level in brain to plasma of in CD1 Swiss specific pathogen free mouse at 10 mg/kg, po after 4 hrs; assay type: ADME, organism-based
[2] = target: Voltage-gated inwardly rectifying potassium channel KCNH2 (Homo sapiens, UniProt Q12809); assay: Inhibition of human ERG expressed in HEK293 cell membranes by radioligand binding assay
[3] = Ratio of total unbound drug level in brain to plasma of in CD1 Swiss specific pathogen free mouse at 10 mg/kg, po after 4 hrs; assay type: ADME, organism-based; conditions: read-out: K(p,uu,brain)
Mus musculus [4] = assay: Antialzheimer activity in CD1 Swiss specific pathogen free mouse assessed as reduction in amyloid beta (1 to 40) levels at 10 mg/kg, po measured after 1 hr post dose by ELISA; assay type: functional; design: scale not given: the % may be the effect or the level left
Mus musculus [5] = assay: Antialzheimer activity in CD1 Swiss specific pathogen free mouse assessed as reduction in amyloid beta (1 to 40) levels at 10 mg/kg, po measured after 2 hrs post dose by ELISA; assay type: functional; design: scale not given: the % may be the effect or the level left
[6] = Drug metabolism in mouse liver microsomes at 1 uM after 15 mins in presence of NADPH by HPLC-MS/MS analysis; assay type: ADME, microsome; conditions: read-out: Drug metabolism
[7] = Fraction unbound in mouse plasma at 5 uM after 4.5 hrs by HPLC-MS/MS method based rapid equilibrium dialysis; assay type: ADME, cell-free
[8] = Fraction unbound in rat brain at 5 uM after 5 hrs by HPLC-MS/MS method based rapid equilibrium dialysis; assay type: ADME, tissue-based
[9] = Dissociation constant, pKa of the compound at 25 degC by potentiometric titration assay; assay type: physicochemical
hERG (KCNH2) = hERG (KCNH2) (Homo sapiens, UniProt Q12809); assay: Inhibition of human ERG expressed in HEK293 cells assessed as reduction in outward potassium current at 3 uM at holding potential was -80 mV after 5 mins by patch clamp assay; assay type: cell-based; conditions: HEK293 cells that express hERG
[10] = Drug metabolism in human liver microsomes at 1 uM after 15 mins in presence of NADPH by HPLC-MS/MS analysis; assay type: ADME, microsome; conditions: read-out: Drug metabolism
Mus musculus [11] = assay: Antialzheimer activity in CD1 Swiss specific pathogen free mouse assessed as reduction in amyloid beta (1 to 40) levels at 10 mg/kg, po measured after 4 hrs post dose by ELISA; assay type: functional; design: scale not given: the % may be the effect or the level left
[12] = test system: MDR1 (P-gp) (Homo sapiens); assay: Apparent permeability across apical to basolateral side in pig LLC cells transfected with human MDR1 at 5 uM in absence of elacridar by LC-MS/MS analysis; conditions: LLC-PK1
HepG2 = assay: Cytotoxicity against human HepG2 cells assessed as effect on cell health indicators after 72 hrs by automated fluorescence microscopy based high content screening based assay; assay type: ADME; conditions: hepg2, 72 h
Beta-secretase 1 [13] = target: T1, Beta-secretase 1 (Homo sapiens, UniProt P56817); assay: Inhibition of BACE1 in human SKNBE2 cells transfected with APP695 protein assessed as reduction in amyloid beta (1 to 42) levels after 18 hrs by sandwich alphalisa assay; assay type: cell-based
Beta-secretase 1 [14] = target: T1, Beta-secretase 1; assay: Inhibition of BACE1 (1 to 454 residues) (unknown origin) using APP derived polypeptide harboring Lys-Met/Asn-Leu mutation as substrate by FRET assay
[15] = Drug uptake in mouse brain at 10 mg/kg, po measured at 2 to 4 hrs; assay type: ADME, organism-based; conditions: in vivo
[16] = Drug metabolism in mouse liver hepatocytes at 1 uM after 60 mins in presence of NADPH by HPLC-MS/MS analysis; assay type: ADME, cell-based, Hepatocyte; conditions: read-out: Drug metabolism
[17] = Plasma concentration in mouse at 10 mg/kg, po after 4 hrs; assay type: ADME, organism-based
Canis familiaris = assay: Antialzheimer activity in po dosed Beagle dog assessed as reduction in amyloid beta (1 to 40) levels measured after 1 hr post dose by ELISA; assay type: functional, organism-based, Canis lupus familiaris
[18] = Cmax in anesthetized guinea pig; assay type: ADME, organism-based, Cavia porcellus; conditions: in vivo
Cavia porcellus = assay: Cardiotoxicity in anesthetized guinea pigs assessed as drug level causing QTcB prolongation dosed up to 10 mg/kg, iv administered over a period of 5 min at 15 min interval by ECG analysis; assay type: toxicity, organism-based; conditions: guinea pig, in vivo
TK6 [19] = assay: Genotoxicity in human TK6 cells up to […] after 24 hrs in absence of rat liver S9 fraction by micronucleus assay; assay type: toxicity, cell-based; conditions: tk6, 24 h
TK6 [20] = assay: Genotoxicity in human TK6 cells at 500 ug/ml after 24 hrs in presence of rat liver S9 fraction by micronucleus assay; assay type: toxicity, cell-based; conditions: s9, 24 h
[21] = Drug uptake in mouse brain at 30 mg/kg, po measured at 2 to 4 hrs; assay type: ADME, organism-based; conditions: in vivo

T1 sequence (P56817 whole entry, the tested form may be a part): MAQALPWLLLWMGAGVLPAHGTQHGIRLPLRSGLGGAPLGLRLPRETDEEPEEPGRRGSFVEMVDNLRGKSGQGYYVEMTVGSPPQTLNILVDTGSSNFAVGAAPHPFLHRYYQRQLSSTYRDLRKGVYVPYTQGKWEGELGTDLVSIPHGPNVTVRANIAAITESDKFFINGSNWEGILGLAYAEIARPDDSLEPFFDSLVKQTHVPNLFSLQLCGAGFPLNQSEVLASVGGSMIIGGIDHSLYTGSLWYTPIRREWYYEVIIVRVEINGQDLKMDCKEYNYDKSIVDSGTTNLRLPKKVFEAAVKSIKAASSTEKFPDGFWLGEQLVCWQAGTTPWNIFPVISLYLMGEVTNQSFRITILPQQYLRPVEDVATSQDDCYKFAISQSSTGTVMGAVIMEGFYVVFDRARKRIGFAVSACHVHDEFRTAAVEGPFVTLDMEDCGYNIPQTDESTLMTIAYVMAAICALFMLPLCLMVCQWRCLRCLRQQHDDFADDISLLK
hERG (KCNH2), sequence (Q12809 whole entry): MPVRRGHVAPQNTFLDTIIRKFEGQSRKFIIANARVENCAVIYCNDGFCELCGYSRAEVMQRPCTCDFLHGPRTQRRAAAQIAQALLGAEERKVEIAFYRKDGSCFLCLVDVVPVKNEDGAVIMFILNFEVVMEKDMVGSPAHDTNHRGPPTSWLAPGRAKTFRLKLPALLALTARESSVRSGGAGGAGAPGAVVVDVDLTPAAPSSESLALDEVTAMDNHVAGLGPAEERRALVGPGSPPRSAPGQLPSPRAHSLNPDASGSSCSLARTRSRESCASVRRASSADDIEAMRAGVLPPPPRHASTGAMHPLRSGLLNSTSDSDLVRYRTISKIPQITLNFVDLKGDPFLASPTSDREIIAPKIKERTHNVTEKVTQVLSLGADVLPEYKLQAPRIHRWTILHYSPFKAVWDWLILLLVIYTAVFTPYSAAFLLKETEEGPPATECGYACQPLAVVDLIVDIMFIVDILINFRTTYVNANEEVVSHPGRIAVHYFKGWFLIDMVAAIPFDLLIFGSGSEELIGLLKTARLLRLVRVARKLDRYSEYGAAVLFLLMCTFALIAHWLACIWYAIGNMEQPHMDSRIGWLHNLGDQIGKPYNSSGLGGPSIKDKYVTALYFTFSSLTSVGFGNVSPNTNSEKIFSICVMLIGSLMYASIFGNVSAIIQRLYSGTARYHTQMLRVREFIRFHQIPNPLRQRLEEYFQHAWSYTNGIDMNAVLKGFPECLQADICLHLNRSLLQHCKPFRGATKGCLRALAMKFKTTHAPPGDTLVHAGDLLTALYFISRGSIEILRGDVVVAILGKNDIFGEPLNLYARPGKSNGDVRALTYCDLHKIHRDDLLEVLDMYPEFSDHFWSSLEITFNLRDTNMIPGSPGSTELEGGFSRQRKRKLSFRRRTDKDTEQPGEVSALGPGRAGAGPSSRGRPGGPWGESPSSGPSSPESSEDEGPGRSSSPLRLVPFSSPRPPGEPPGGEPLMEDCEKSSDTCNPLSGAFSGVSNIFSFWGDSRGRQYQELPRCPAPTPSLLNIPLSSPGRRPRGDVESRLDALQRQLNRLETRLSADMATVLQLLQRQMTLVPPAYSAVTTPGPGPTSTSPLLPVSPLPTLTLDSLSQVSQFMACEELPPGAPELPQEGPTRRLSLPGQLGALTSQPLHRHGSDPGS
Voltage-gated inwardly rectifying potassium channel KCNH2, sequence (Q12809 whole entry): as above

COc1cnc(C(=O)Nc2ccc(F)c([C@@]3(C)N=C(N)CO[C@@H]3F)c2)cn1
Kp at 4 h [1]: 0.6 | IC50 [2]: > 10 µM | Kp uu at 4 h [3]: 0.09 | Activity (Mus musculus [4]): 39% | Activity (Mus musculus [5]): 65%

COc1cnc(C(=O)Nc2ccc(F)c([C@@]3(C)N=C(N)CO[C@H]3C(F)(F)F)c2)cn1
metabolised at 0.25 h, 1 µM [6]: 19% | fraction unbound at 4.5 h, 5 µM [7]: 0.155 | fraction unbound at 5 h, 5 µM [8]: 0.02 | Kp at 4 h [1]: 1.81 | pKa [9]: 7.8 | inhibition at 5 min, 3 µM (hERG (KCNH2)): 19% | metabolised at 0.25 h, 1 µM [10]: 2% | Activity (Mus musculus [11]): 29% | IC50 [2]: > 10 µM | Kp uu at 4 h [3]: 0.23 | Activity (Mus musculus [4]): 23% | Activity (Mus musculus [5]): 37% | Papp A→B at 5 µM [12]: 137 nm/s | MTC (HepG2): 15.6 µM

COc1cnc(C(=O)Nc2ccc(F)c([C@@]3(C)N=C(N)COC3=C(F)F)c2)cn1
fraction unbound at 4.5 h, 5 µM [7]: 0.146 | fraction unbound at 5 h, 5 µM [8]: 0.017 | Kp at 4 h [1]: 0.97 | IC50 (Beta-secretase 1 [13]): 0.0351 µM | pKa [9]: 7.9 | Activity (Mus musculus [11]): 7% | IC50 [2]: > 10 µM | Kp uu at 4 h [3]: 0.11 | Activity (Mus musculus [5]): 6% | IC50 (Beta-secretase 1 [14]): 0.151 µM | Papp A→B at 5 µM [12]: 86.3 nm/s

C[C@]1(c2cc(NC(=O)c3cnc(N4CCC4)cn3)ccc2F)N=C(N)CO[C@H]1C(F)(F)F
IC50 (Beta-secretase 1 [13]): 0.115 µM | IC50 (Beta-secretase 1 [14]): 0.457 µM

COc1cnc(C(=O)Nc2ccc(F)c([C@@]3(C)N=C(N)CO[C@H]3C(F)F)c2)cn1
fraction unbound at 4.5 h, 5 µM [7]: 0.279 | fraction unbound at 5 h, 5 µM [8]: 0.047 | Kp at 4 h [1]: 0.4 | IC50 (Beta-secretase 1 [13]): 0.0049 µM | pKa [9]: 8.4 | inhibition at 5 min, 3 µM (hERG (KCNH2)): 24% | Activity (Mus musculus [11]): 40% | IC50 [2]: > 10 µM | Kp uu at 4 h [3]: 0.07 | Activity (Mus musculus [4]): 11% | Activity (Mus musculus [5]): 38% | IC50 (Beta-secretase 1 [14]): 0.0114 µM | Papp A→B at 5 µM [12]: 48 nm/s

C[C@]1(c2cc(NC(=O)c3ccc(Cl)cn3)ccc2F)N=C(N)CO[C@H]1C(F)(F)F
metabolised at 0.25 h, 1 µM [6]: 48% | inhibition at 5 min, 3 µM (hERG (KCNH2)): 27% | metabolised at 0.25 h, 1 µM [10]: 0% | MTC (HepG2): 13.6 µM

C[C@@]1(c2cc(N/C=C/c3ccc(C#N)cn3)ccc2F)COCC(N)=N1
IC50 (Beta-secretase 1 [13]): 0.251 µM | IC50 (Beta-secretase 1 [14]): 2.34 µM

C[C@]1(c2cc(NC(=O)c3ncc(C#N)cc3Cl)ccc2F)N=C(N)CO[C@H]1C(F)(F)F
metabolised at 0.25 h, 1 µM [6]: 38% | inhibition at 5 min, 3 µM (hERG (KCNH2)): 13% | metabolised at 0.25 h, 1 µM [10]: 38%

C[C@]1(c2cc(NC(=O)c3ncc(C#N)cc3Cl)ccc2F)N=C(N)CO[C@@H]1F
metabolised at 0.25 h, 1 µM [6]: 0% | IC50 (Beta-secretase 1 [13]): 0.0155 µM | Drug uptake [15]: Not Active | metabolised at 1 h, 1 µM [16]: 55% | inhibition at 5 min, 3 µM (hERG (KCNH2)): 19% | metabolised at 0.25 h, 1 µM [10]: 1% | IC50 [2]: > 10 µM | concentration at 4 h [17]: 0.038 µg/mL | IC50 (Beta-secretase 1 [14]): 0.0107 µM | Papp A→B at 5 µM [12]: 30.6 nm/s

C[C@]1(c2cc(NC(=O)c3cnc(NC4CC4)cn3)ccc2F)N=C(N)CO[C@H]1C(F)(F)F
IC50 (Beta-secretase 1 [13]): 0.603 µM | IC50 (Beta-secretase 1 [14]): 3.02 µM

C[C@]1(c2cc(NC(=O)c3ccc(C#N)cn3)ccc2F)N=C(N)CO[C@@H]1F
fEC50 (Canis familiaris): 0.023 µM | Cmax [18]: 0.475 µg/mL | metabolised at 1 h, 1 µM [16]: 0% | IC50 [2]: 8 µM | LOAEL (Cavia porcellus): 475 ng/mL | fLOAEL (Cavia porcellus): 0.55 µM | fNOAEL (Cavia porcellus): 0.2 µM

C[C@]1(c2cc(N)ccc2F)N=C(N)CO[C@H]1C(F)(F)F
Activity (TK6 [19]): Non-Toxic | Activity (TK6 [20]): Non-Toxic

C[C@]1(c2cc(NC(=O)c3cnc(OC(F)(F)C(F)(F)F)cn3)ccc2F)N=C(N)CO[C@H]1C(F)(F)F
IC50 (Beta-secretase 1 [13]): 0.049 µM | IC50 (Beta-secretase 1 [14]): 0.0302 µM

COCCOc1cnc(C(=O)Nc2ccc(F)c([C@@]3(C)N=C(N)CO[C@H]3C(F)(F)F)c2)cn1
metabolised at 0.25 h, 1 µM [6]: 59% | IC50 (Beta-secretase 1 [13]): 0.0125 µM | metabolised at 0.25 h, 1 µM [10]: 56% | IC50 (Beta-secretase 1 [14]): 0.0407 µM

C[C@]1(c2cc(NC(=O)c3cnc(NCC(F)(F)F)cn3)ccc2F)N=C(N)CO[C@H]1C(F)(F)F
IC50 (Beta-secretase 1 [13]): 4.5 µM | IC50 (Beta-secretase 1 [14]): > 10 µM

C[C@]1(c2cc(NC(=O)c3ncc(C#N)cc3F)ccc2F)N=C(N)CO[C@@H]1F
metabolised at 0.25 h, 1 µM [6]: 19% | IC50 (Beta-secretase 1 [13]): 0.0122 µM | inhibition at 5 min, 3 µM (hERG (KCNH2)): 24% | metabolised at 0.25 h, 1 µM [10]: 11% | Drug uptake [21]: Not Active | IC50 [2]: > 10 µM | IC50 (Beta-secretase 1 [14]): 0.0184 µM | Papp A→B at 5 µM [12]: 10.5 nm/s

C[C@]1(c2cc(-c3cncnc3)ccc2F)N=C(N)CO[C@H]1C(F)(F)F (racemic)
metabolised at 0.25 h, 1 µM [6]: 51% | IC50 (Beta-secretase 1 [13]): 0.631 µM | metabolised at 0.25 h, 1 µM [10]: 7% | IC50 (Beta-secretase 1 [14]): 1.86 µM

C[C@]1(c2cc(NC(=O)c3cnc(OCC(F)(F)F)cn3)ccc2F)N=C(N)CO[C@H]1C(F)(F)F
IC50 (Beta-secretase 1 [13]): 0.0209 µM | IC50 (Beta-secretase 1 [14]): 0.0245 µM
